Reference: US20080032945A1, “2'-MODIFIED OLIGONUCLEOTIDES” (Isis Pharmaceuticals, Inc., priority 1992, published 2008)
Read-outs that look alike come from different tables or passages of the source. [OPent] = 2'-O-pentyl ribonucleoside; [OPr] = 2'-O-propyl ribonucleoside; d = 2'-deoxy (DNA)

How the values were obtained:
[1] = tested on: PKC-α mRNA; assay: Northern blot analysis of PKC-α mRNA levels; format: cell-based, human; details: result in words
Method: Oligonucleotides having SEQ ID NO:4 were synthesized as uniformly phosphorothioate chimeric oligonucleotides having a centered deoxy gap of varying lengths flanked by 2′-O-methylated regions. These oligonucleotides (500 nM concentration) were tested for effects on PKC-A mRNA levels by Northern blot analysis.
Additional phosphorothioate oligonucleotides targeted to the human PKC-α 3′ untranslated region were designed and synthesized.

[2] = tested on: complementary RNA strand (the sense strand); assay: Thermal melting analysis of 2′-deoxy-2′-fluoro modified oligonucleotides (hybridization thermodynamics); format: binding
[3] = tested on: ras mRNA; assay: Northern blot analysis of ras expression in T24 cells; format: cell-based, human
Method: The human urinary bladder cancer cell line T24 was obtained from the American Type Culture Collection (Rockville Md.). Cells were grown in McCoy's 5A medium with L-glutamine (GIBCO-BRL, Gaithersburg, Md.), supplemented with 10% heat-inactivated fetal calf serum and 50 U/ml each of penicillin and streptomycin. Cells were seeded on 100 mm plates. When they reached 70% confluency, they were treated with oligonucleotide. Plates were washed with 10 ml prewarmed PBS and 5 ml of OptiMEM (GIBCO) reduced-serum medium containing 2.5 μl DOTMA. Oligonucleotide was then added to the desired concentration. After 4 hours of treatment, the medium was replaced with McCoy's medium. Cells were harvested 48 hours after oligonucleotide treatment and RNA was isolated using a standard CsCl purification method. [Kingston in Current Protocols in Molecular Biology, F. M. Ausubel, R. Brent, R. E. Kingston, D. D. Moore, J. A. Smith, J. G. Seidman and K. Strahl, Eds., John Wiley and Sons, New York.] The human epithelioid carcinoma cell line HeLa 229 was obtained from the American Type Culture Collection (Bethesda, Md.). HeLa cells were maintained as monolayers on 6-well plates in Dulbecco's Modified Eagle's medium (DMEM) supplemented with 10% fetal bovine serum and 100 U/ml penicillin. Treatment with oligonucleotide and isolation of RNA were essentially as described above for T24 cells.
Northern hybridization: 10 μg of each RNA was electrophoresed on a 1.2% agarose/formaldehyde gel and transferred overnight to GeneBind 45 nylon membrane (Pharmacia LKB, Piscataway, N.J.) using standard methods. [Kingston in Current Protocols in Molecular Biology, F. M. Ausubel, R. Brent, R. E. Kingston, D. D. Moore, J. A. Smith, J. G. Seidman and K. Strahl, Eds., John Wiley and Sons, New York.] RNA was UV-crosslinked to the membrane. Double-stranded ^32P-labeled probes were synthesized using the Prime a Gene labeling kit (Promega, Madison Wis.). The ras probe was a SalI-NheI fragment of a cDNA clone of the activated (mutant) H-ras mRNA having a GGC-to-GTC mutation at codon-12. The control probe was G3PDH. Blots were prehybridized for 15 minutes at 68° C. with the QuickHyb hybridization solution (Stratagene, La Jolla, Calif.). The heat-denatured radioactive probe (2.5×10^6 counts/2 ml hybridization solution) mixed with 100 μl of 10 mg/ml salmon sperm DNA was added and the membrane was hybridized for 1 hour at 68° C. The blots were washed twice for 15 minutes at room temperature in 2×SSC/0.1% SDS and once for 30 minutes at 60° C. with 0.1×SSC/0.1% SDS. Blots were autoradiographed and the intensity of signal was quantitated using an ImageQuant PhosphorImager (Molecular Dynamics, Sunnyvale, Calif.). Northern blots were first hybridized with the ras probe, then stripped by boiling for 15 minutes in 0.1×SSC/0.1% SDS and rehybridized with the control G3PDH probe to check for correct sample loading.

[4] = tested on: 25mer oligoribonucleotide complement; assay: Melting curves with 25mer oligoribonucleotide complement; format: binding; details: 17mer hybridized with 25mer oligoribonucleotide complement
Source text: Other sugar modifications: The effects of other 2′ sugar modifications besides 2′-O-methyl on antisense activity in chimeric oligonucleotides have been examined. These modifications are listed in Table 4, along with the Tm values obtained when 17mer oligonucleotides having 2′-modified nucleotides flanking a 7-base deoxy gap were hybridized with a 25mer oligoribonucleotide complement as described in Example 25. […] As alkyl length increased, Tm decreased.
Absorbance vs. temperature curves were measured at 260 nm using a Gilford 260 spectrophotometer interfaced to an IBM PC computer and a Gilford Response II spectrophotometer. The buffer contained 100 mM Na^+, 10 mM phosphate and 0.1 mM EDTA, pH 7. Oligonucleotide concentration was 4 μM each strand determined from the absorbance at 85° C. and extinction coefficients calculated according to Puglisi and Tinoco [Methods in Enzymol., 180, 304 (1989). Tm values, free energies of duplex formation and association constants were obtained from fits of data to a two state model with linear sloping baselines. [Petersheim and Turner, Biochemistry, 22, 256 (1983). Reported parameters are averages of at least three experiments. For some oligonucleotides, free energies of duplex formation were also obtained from plots of Tm^−1 vs log10 (concentration). Borer et al., J. Mol. Biol., 86, 843 (1974).

[5] = tested on: ras-luciferase (codon-12 point mutation of activated H-ras); assay: ras-luciferase reporter gene system; format: cell-based, human; details: for inhibition of ras-luciferase activity: cells expressing the mutant form of ras-luciferase, dose response, FIGS. 1 and 2; for effect on ras expression: chimeric backbone-modified oligonucleotides, result in words
[6] = duplex with complementary RNA, first Tm column

AsAoAoAoCoGsTsCsAsGsCsCsAsTsGoGoToCoCsC (AAAACGTCAGCCATGGTCCC; linkages s1 o4 s9 o4 s1 (s phosphorothioate, o phosphodiester), sugars by position and methylation of C not given here; further chemistry not fully specified) [Oligonucleotide 7008]
effect on PKC-α mRNA levels ([1]; listed as 7008): reduction of PKC-α mRNA

CTC GTA CCT TCC GGT CC: unmodified phosphodiester, SEQ ID NO: 22 (CTCGTACCTTCCGGTCC; unmodified DNA)
Tm [2, 6]: 61.6 °C

CTTATATTCCGTCATCGCTC (chemistry not given here) [Compound 2502, phosphorothioate oligonucleotide complementary to the ras AUG region, 20 deoxy, reference compound]
inhibition of ras expression / decrease of ras mRNA [3]: 26%

O-Propyl: 17-mer CCACACCGACGGCGCCC (SEQ ID NO: 1), 2′-O-propyl nucleotides flanking a 7-base deoxy gap (sugars from the 5' end [OPr]5 d7 [OPr]5, backbone and methylation of C not given here)
Tm [4]: 70.4 °C

C^MC^MA^M C^MA^MC^M CdGdAd CdGdG^M C^MG^MC^M C^MC^M [Oligonucleotide 3980]
inhibition of ras expression / decrease of ras mRNA [3]: 61% | inhibition of ras-luciferase activity [5]: next greatest inhibition

TCCGTCATCGCTCCTCAGGG [Oligonucleotide 5122]
inhibition of ras expression / decrease of ras mRNA ([3]; listed as 5122): 15%

AsAoAoAoCoGsTsCsAsGsCsCsAsTsGoGoToCoCsC (AAAACGTCAGCCATGGTCCC; linkages s1 o4 s9 o4 s1 (s phosphorothioate, o phosphodiester), sugars by position and methylation of C not given here; further chemistry not fully specified) [Oligonucleotide 7294]
effect on PKC-α mRNA levels ([1]; listed as 7294): more active than their 2′-β-methyl counterparts

CUC GUA CCU UCC GGU CC: SEQ ID NO: 28; adenosine, thymidine and cytidine nucleotides modified to contain 2′-deoxy-2′-fluoro substituents (CUCGUACCUUCCGGUCC; 2'-fluoro on A, U/T, C, G sugar and linkages not given here, further chemistry not given here)
Tm [2, 6]: 81.6 °C

CTTATATTCCGTCATCGCTC (chemistry not given here) [Oligonucleotide 4998, chimeric phosphorothioate, 7-base deoxy gap flanked by 2′-O-methyl regions, AUG target]
inhibition of ras expression / decrease of ras mRNA ([3]; listed as 4998): 84%

AoAoAoAoCoGsTsCsAsGsCsCsAsTsGoGoToCoCoC (AAAACGTCAGCCATGGTCCC; linkages o5 s9 o5 (s phosphorothioate, o phosphodiester), sugars by position and methylation of C not given here; further chemistry not fully specified) [Oligonucleotide 7273]
effect on PKC-α mRNA levels [1]: more active than their 2′-β-methyl counterparts

TsCsTs CsGsCs TsGsGs TsGsAs GsTsTs TsC (TCTCGCTGGTGAGTTTC; all phosphorothioate, sugars by position and methylation of C not given here; further chemistry not fully specified) [Oligonucleotide 7082]
effect on PKC-α mRNA levels [1]: most active

O-Pentyl: 17-mer CCACACCGACGGCGCCC (SEQ ID NO: 1), 2′-O-pentyl nucleotides flanking a 7-base deoxy gap (sugars from the 5' end [OPent]5 d7 [OPent]5, backbone and methylation of C not given here)
Tm [4]: 68.5 °C

CsCsAsCoAoCoCoGoAoCoGoGoCoGsCsCsC [ISIS 4241]
effect on ras expression [5]: completely inactive

C^MC^MA^M C^MA^MC^M C^MG^MAd C^MG^MG^M C^MG^MC^M C^MC^M [Oligonucleotide 3975]
inhibition of ras-luciferase activity [5]: neither of the oligonucleotides having either the one or the three 2′-deoxy-erythro-pentofuranosyl nucleotide subsequences showed significant activity

C^MC^MA^M C^MA^MC^M C^MGdAd CdG^MG^M C^MG^MC^M C^MC^M [Oligonucleotide 3979]
inhibition of ras-luciferase activity [5]: measurable activity for the three nucleotide subsequence oligonucleotide 3979 at the highest concentration dose

C^MC^MA^M C^MAdCd CdGdAd CdGdGd CdG^MC^M C^MC^M [Oligonucleotide 3984]
inhibition of ras expression / decrease of ras mRNA [3]: 81% | inhibition of ras-luciferase activity [5]: greater inhibition of ras-luciferase activity than did oligonucleotide 2570

ps(CGA CTA TGC AAG TAC)
Tm ([2]; change in Tm relative to the unmodified oligonucleotide): −11.2 °C | Tm [2, 6]: 33.9 °C

AsAsAsAsCsGsTsCsAsGsCsCsAsTsGsGsTsCsCsC (AAAACGTCAGCCATGGTCCC; listed as DNA, chemistry not fully specified) [Oligonucleotide 3522, reference compound]
effect on PKC-α mRNA levels [1]: reduction of PKC-α mRNA

TsTsCs TsCsGs CsTsGs GsTsGs AsGsTs TsTsC (TTCTCGCTGGTGAGTTTC; all phosphorothioate, sugars by position and methylation of C not given here; further chemistry not fully specified) [Oligonucleotide 6632]
effect on PKC-α mRNA levels [1]: most active

ps(CGA CUA UGC AAG UAC)
Tm [2, 6]: 60.9 °C

oligonucleotide with the 2′-O-propyl diester flanking regions: SEQ ID NO:1, phosphorothioate backbone in the 7-base deoxy gap only, phosphodiester 2′-O-propyl flanking regions (CCACACCGACGGCGCCC; 2'-O-propyl phosphodiester flanks, 7-deoxy phosphorothioate gap, exact positions not given here)
effect on ras expression [5]: able to inhibit ras expression

CsCsAsCsAsCsCsGsAoCsGsGsCsGsCsCsC [ISIS 4248]
effect on ras expression [5]: just as active as a full P═S molecule

AsAsAsAsCsGsTsCsAsGsCsCsAsTsGsGsTsCsCsC (AAAACGTCAGCCATGGTCCC; all phosphorothioate, sugars by position and methylation of C not given here; further chemistry not fully specified) [Oligonucleotide 5352]
effect on PKC-α mRNA levels [1]: most active
